# Publication PMC10046369, “Low-Affinity/High-Selectivity Dopamine Transport Inhibition Sufficient to Rescue Cognitive Functions in the Aging Rat” (Biomolecules, 2023)
# How the values were obtained:
# Experiment in all cases: biochemical
# Parameters in all cases: KINOMEscan competition binding panel, per cent of control
# Conditions in all cases: read-out: %Ctrl @ 2800nM
# [1] = target: T1, ABL1(F317I)-nonphosphorylated (Homo sapiens, UniProt P00519, F317I)
# T1 construct: nonphosphorylated
# How it was run: (§1)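 Values are expressed as percent of control, calculated as ((test − positive control)/(negative control − positive control)) × 100, so lower numbers mean stronger hits. Binding was measured by KINOMEscan competition assay in a 450-kinase human panel including disease mutants, using the contractor's validated protocol.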
# AKT1 = AKT1 (Homo sapiens, UniProt P31749)
# How it was run: as §1
# ARK5 = target: T2, ARK5 (Homo sapiens, UniProt O60285)
# T2 construct: gene NUAK1
# How it was run: as §1
# CSNK1D = CSNK1D (Homo sapiens, UniProt P48730)
# How it was run: as §1
# DCAMKL1 = target: T3, DCAMKL1 (Homo sapiens, UniProt O15075)
# T3 construct: gene DCLK1
# T3 sequence (O15075 whole entry): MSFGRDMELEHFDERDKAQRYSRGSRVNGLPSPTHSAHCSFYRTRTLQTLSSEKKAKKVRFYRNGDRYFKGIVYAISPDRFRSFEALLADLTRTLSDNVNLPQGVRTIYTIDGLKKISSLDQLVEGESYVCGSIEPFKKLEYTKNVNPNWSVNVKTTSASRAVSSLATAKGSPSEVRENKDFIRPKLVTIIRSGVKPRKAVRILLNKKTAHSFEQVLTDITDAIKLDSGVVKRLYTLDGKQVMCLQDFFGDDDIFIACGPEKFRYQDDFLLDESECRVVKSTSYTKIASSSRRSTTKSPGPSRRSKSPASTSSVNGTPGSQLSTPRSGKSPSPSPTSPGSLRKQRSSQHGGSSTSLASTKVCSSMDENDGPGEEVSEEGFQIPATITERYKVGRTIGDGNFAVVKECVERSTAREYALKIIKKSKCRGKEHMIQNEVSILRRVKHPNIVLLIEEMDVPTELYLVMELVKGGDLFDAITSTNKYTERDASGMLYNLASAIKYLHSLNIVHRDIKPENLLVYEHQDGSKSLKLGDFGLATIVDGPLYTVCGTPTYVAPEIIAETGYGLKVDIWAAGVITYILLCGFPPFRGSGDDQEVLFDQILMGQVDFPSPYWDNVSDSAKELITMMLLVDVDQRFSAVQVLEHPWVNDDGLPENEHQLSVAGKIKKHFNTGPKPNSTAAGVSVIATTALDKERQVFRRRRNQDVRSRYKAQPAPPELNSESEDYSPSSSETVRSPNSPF
# How it was run: as §1
# EGFR = EGFR (Homo sapiens, UniProt P00533)
# How it was run: as §1
# EPHA6 = EPHA6 (Homo sapiens, UniProt Q9UF33)
# How it was run: as §1
# ERBB2 = ERBB2 (Homo sapiens, UniProt P04626)
# How it was run: as §1
# ERK3 = target: T4, ERK3 (Homo sapiens, UniProt Q16659)
# T4 construct: gene MAPK6
# How it was run: as §1
# ERK4 = target: T5, ERK4 (Homo sapiens, UniProt P31152)
# T5 construct: gene MAPK4
# T5 sequence (P31152 whole entry): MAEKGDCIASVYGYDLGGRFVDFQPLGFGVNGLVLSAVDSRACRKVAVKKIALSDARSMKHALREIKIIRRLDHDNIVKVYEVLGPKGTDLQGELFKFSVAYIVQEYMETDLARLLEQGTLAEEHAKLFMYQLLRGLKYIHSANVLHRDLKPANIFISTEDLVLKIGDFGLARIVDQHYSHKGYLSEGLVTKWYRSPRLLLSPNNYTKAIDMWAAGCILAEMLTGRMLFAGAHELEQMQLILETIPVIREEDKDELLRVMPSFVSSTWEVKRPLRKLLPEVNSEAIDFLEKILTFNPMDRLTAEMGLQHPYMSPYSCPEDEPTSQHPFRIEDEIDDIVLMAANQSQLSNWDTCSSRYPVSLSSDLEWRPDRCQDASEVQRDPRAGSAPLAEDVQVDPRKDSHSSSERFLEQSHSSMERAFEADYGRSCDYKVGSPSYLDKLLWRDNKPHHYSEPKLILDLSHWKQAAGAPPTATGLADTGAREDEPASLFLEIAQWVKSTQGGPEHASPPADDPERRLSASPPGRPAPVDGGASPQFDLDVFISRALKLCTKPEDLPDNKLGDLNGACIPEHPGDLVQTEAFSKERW
# How it was run: as §1
# FLT3(ITD) = FLT3(ITD) (Homo sapiens, UniProt P36888, ITD)
# Chain of FLT3(ITD) (P36888 564-993, change not shown): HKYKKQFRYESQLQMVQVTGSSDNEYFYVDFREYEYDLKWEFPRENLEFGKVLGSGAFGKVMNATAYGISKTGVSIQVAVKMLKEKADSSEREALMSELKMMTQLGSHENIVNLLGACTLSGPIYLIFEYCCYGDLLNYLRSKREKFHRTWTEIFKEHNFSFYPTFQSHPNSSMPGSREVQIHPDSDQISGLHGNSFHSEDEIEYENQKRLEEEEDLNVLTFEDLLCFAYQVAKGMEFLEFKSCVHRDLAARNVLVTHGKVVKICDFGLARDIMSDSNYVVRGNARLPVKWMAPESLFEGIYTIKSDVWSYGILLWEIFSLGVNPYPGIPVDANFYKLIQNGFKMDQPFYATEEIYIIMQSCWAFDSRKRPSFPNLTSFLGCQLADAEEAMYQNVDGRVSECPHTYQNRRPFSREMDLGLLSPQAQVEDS
# How it was run: as §1
# GRK2 = GRK2 (Homo sapiens, UniProt P25098)
# How it was run: as §1
# HUNK = HUNK (Homo sapiens, UniProt P57058)
# Chain of HUNK (P57058 whole entry): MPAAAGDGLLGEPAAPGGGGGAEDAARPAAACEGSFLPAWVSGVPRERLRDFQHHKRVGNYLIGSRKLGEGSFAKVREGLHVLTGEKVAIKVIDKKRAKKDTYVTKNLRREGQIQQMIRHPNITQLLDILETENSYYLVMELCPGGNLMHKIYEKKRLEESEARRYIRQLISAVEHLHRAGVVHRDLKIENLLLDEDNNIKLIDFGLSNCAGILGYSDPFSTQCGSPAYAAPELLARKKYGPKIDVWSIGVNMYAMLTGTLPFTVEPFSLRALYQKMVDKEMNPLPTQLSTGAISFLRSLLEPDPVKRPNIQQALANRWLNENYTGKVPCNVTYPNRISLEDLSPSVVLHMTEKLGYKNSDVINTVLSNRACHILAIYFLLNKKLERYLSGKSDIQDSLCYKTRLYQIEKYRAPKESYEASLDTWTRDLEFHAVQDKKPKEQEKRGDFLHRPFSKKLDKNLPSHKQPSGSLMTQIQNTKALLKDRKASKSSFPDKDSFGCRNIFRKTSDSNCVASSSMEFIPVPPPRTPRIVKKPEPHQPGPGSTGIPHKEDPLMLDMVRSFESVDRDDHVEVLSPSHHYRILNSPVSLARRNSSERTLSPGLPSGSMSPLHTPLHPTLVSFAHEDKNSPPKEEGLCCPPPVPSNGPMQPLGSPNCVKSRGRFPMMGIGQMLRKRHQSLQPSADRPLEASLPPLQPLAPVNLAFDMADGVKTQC
# How it was run: as §1
# KIT-autoinhibited = KIT-autoinhibited (Homo sapiens, UniProt P10721)
# How it was run: as §1
# MAP4K2 = MAP4K2 (Homo sapiens, UniProt Q12851)
# How it was run: as §1
# MAP4K5 = MAP4K5 (Homo sapiens, UniProt Q9Y4K4)
# How it was run: as §1
# MEK5 = target: T6, MEK5 (Homo sapiens, UniProt Q13163)
# T6 construct: gene MAP2K5
# How it was run: as §1
# MET(M1250T) = MET(M1250T) (Homo sapiens, UniProt P08581, M1250T)
# How it was run: as §1
# MYO3A = MYO3A (Homo sapiens, UniProt Q8NEV4)
# How it was run: as §1
# NDR1 = target: T7, NDR1 (Homo sapiens, UniProt Q15208)
# T7 construct: gene STK38
# T7 sequence (Q15208 whole entry): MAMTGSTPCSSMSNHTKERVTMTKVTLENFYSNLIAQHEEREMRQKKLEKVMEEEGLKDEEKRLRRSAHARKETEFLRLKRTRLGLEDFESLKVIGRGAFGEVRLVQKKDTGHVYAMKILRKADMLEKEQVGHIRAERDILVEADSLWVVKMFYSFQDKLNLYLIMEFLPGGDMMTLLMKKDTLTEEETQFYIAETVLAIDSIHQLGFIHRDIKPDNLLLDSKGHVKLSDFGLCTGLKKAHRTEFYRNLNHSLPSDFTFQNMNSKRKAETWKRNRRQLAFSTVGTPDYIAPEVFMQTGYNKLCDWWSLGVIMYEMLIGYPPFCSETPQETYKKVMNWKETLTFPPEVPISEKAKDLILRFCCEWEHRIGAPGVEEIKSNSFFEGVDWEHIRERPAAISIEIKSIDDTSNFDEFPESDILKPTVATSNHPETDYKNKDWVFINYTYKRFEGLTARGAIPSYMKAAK
# How it was run: as §1
# NEK3 = NEK3 (Homo sapiens, UniProt P51956)
# How it was run: as §1
# PIK4CB = target: T8, PIK4CB (Homo sapiens, UniProt Q9UBF8)
# T8 construct: gene PI4KB
# How it was run: as §1
# PKN2 = PKN2 (Homo sapiens, UniProt Q16513)
# How it was run: as §1
# RIPK2 = RIPK2 (Homo sapiens, UniProt O43353)
# Chain of RIPK2 (O43353 whole entry): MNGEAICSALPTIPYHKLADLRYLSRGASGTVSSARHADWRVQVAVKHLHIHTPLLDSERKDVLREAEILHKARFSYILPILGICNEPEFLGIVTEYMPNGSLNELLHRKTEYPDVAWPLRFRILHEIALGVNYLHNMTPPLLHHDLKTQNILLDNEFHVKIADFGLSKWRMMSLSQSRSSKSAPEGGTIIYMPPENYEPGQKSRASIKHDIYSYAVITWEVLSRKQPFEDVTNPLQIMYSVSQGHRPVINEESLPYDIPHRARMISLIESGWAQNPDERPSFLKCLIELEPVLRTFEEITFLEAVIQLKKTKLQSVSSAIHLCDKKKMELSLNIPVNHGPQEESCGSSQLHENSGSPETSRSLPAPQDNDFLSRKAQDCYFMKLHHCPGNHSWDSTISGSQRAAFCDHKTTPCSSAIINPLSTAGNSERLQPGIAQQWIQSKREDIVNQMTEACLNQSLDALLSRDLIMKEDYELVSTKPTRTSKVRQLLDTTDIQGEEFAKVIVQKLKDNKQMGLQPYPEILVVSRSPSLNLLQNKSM
# How it was run: as §1
# SIK2 = SIK2 (Homo sapiens, UniProt Q9H0K1)
# Chain of SIK2 (Q9H0K1 whole entry): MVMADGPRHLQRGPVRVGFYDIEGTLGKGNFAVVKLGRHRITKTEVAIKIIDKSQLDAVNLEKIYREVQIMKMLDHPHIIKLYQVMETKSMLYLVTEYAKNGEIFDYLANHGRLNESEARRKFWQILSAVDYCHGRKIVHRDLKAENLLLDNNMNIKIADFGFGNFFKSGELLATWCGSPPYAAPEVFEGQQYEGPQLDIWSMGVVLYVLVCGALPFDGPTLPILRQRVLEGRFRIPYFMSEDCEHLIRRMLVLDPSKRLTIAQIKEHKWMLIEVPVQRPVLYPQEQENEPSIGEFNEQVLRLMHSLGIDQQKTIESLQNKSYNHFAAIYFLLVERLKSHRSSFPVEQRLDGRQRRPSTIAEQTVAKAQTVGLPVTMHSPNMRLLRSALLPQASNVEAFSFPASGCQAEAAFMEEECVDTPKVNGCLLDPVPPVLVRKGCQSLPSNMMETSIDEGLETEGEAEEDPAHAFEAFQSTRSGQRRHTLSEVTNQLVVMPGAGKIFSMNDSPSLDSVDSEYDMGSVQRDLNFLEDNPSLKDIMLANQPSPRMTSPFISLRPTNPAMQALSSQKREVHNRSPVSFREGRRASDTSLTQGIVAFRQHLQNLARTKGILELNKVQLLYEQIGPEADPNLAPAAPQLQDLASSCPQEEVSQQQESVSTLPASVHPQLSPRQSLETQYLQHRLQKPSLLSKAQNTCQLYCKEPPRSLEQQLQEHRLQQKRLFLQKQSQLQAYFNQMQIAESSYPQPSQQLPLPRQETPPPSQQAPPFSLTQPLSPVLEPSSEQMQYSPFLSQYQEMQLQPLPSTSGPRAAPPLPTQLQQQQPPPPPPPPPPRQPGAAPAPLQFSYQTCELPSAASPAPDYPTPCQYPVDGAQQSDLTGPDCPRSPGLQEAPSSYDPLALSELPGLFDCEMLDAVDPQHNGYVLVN
# How it was run: as §1
# TESK1 = TESK1 (Homo sapiens, UniProt Q15569)
# Chain of TESK1 (Q15569 whole entry): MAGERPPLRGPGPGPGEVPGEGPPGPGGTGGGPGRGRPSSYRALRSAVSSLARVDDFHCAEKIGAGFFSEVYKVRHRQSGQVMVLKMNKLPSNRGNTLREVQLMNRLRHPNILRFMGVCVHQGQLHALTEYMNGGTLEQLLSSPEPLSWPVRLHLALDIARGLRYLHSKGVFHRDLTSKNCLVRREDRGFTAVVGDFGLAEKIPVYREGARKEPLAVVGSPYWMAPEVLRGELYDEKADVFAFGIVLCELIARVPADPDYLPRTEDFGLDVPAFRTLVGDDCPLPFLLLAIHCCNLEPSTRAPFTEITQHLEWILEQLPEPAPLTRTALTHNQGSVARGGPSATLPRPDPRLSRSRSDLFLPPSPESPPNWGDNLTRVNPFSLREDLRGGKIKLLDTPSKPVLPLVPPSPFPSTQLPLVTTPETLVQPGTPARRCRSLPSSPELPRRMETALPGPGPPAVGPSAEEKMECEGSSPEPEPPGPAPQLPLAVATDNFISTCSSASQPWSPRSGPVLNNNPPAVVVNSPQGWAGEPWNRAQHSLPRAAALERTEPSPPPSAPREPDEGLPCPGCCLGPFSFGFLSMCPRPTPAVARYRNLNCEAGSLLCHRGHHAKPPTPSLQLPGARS
# How it was run: as §1
smiles,measurement,setting,value
"[O-][S@@+](Cc1cncs1)C(c1ccccc1)c1ccccc1 [S-CE-123, (S)-5-((Benzhydrylsulfinyl)Methyl)Thiazole]",remaining binding at 2.8 µM,[1],100%
same,remaining binding at 2.8 µM,AKT1,99%
same,remaining binding at 2.8 µM,ARK5,100%
same,remaining binding at 2.8 µM,CSNK1D,100%
same,remaining binding at 2.8 µM,DCAMKL1,100%
same,remaining binding at 2.8 µM,EGFR,92%
same,remaining binding at 2.8 µM,EPHA6,100%
same,remaining binding at 2.8 µM,ERBB2,100%
same,remaining binding at 2.8 µM,ERK3,93%
same,remaining binding at 2.8 µM,ERK4,100%
same,remaining binding at 2.8 µM,FLT3(ITD),100%
same,remaining binding at 2.8 µM,GRK2,100%
same,remaining binding at 2.8 µM,HUNK,100%
same,remaining binding at 2.8 µM,KIT-autoinhibited,86%
same,remaining binding at 2.8 µM,MAP4K2,100%
same,remaining binding at 2.8 µM,MAP4K5,95%
same,remaining binding at 2.8 µM,MEK5,98%
same,remaining binding at 2.8 µM,MET(M1250T),99%
same,remaining binding at 2.8 µM,MYO3A,96%
same,remaining binding at 2.8 µM,NDR1,83%
same,remaining binding at 2.8 µM,NEK3,100%
same,remaining binding at 2.8 µM,PIK4CB,94%
same,remaining binding at 2.8 µM,PKN2,86%
same,remaining binding at 2.8 µM,RIPK2,100%
same,remaining binding at 2.8 µM,SIK2,100%
same,remaining binding at 2.8 µM,TESK1,96%
